Assay [1] deals with T1, Alpha glucosidase (Homo sapiens, UniProt O43451+P10253+P14410+Q2M2H8). Description: Inhibition of alpha-glucosidase (unknown origin) using p-NPG as substrate incubated for 15 mins by spectrophotometric analysis. The format is protein assay.
The target in assay [2] is T2, Tyrosine-protein phosphatase non-receptor type 1 (Homo sapiens, UniProt P18031).
T2 sequence (P18031 whole entry): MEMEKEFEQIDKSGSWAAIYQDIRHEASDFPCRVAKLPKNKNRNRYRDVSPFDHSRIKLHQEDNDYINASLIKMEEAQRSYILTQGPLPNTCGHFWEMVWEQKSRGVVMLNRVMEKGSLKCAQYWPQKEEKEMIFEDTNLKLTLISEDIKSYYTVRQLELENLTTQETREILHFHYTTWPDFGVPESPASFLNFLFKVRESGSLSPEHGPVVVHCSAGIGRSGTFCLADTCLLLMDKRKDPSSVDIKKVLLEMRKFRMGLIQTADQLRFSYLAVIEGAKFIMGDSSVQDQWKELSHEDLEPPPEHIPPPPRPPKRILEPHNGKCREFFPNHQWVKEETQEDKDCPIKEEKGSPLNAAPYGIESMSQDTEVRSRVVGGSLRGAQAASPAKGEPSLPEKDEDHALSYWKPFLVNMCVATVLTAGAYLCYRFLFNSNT
Description: Inhibition of PTP1B (unknown origin) using pNPP as substrate preincubated for 10 mins followed by substrate addition for 20 mins by absorbance based analysis.

Assay [3] addresses T1, Alpha glucosidase. Kind of assay: Inhibition of alpha-glucosidase (unknown origin) using p-NPG as substrate preincubated for 15 mins followed by substrate addition for 30 mins by absorbance based analysis. The format is protein assay.
Assay [4] has as its system Mus musculus. Kind of assay: Reduction in blood glucose concentration in male Kunming mouse assessed as decrease in glucose AUC at 20 mg/kg preadministered for 40 mins and measured after 120 mins by sucrose loading test relative to control. In kind it is functional, organism-based.
Assay [5] is described as follows: Inhibition of alpha-amylase (unknown origin). On the set-up: species or system Homo sapiens.
Assay [6] has as its system Mus musculus. Kind of assay: Reduction in blood glucose concentration in male Kunming mouse at 20 mg/kg preadministered for 40 mins and measured after 120 mins by sucrose loading test. The format is functional, organism-based.

Calls of active or inactive are those of the source. No cut-off for these calls is given here.

Experimental findings from ChEMBL document CHEMBL6092166, “Design, synthesis and enzymatic inhibition evaluation of novel 4-hydroxy Pd-C-Ⅲ derivatives as α-glucosidase and PTP1B dual-target inhibitors” (Eur J Med Chem, 2024) are described below.

As to `CC1(C)Oc2cc3oc(=O)ccc3cc2C[C@@H]1O` [DECURSINOL], the IC50 in assay [1] turned out to be 65.3 µM; in assay [2], 58.9 µM. `Cc1cc(OCCOC(=O)/C=C/c2ccc(Cl)cc2Cl)cc2oc(=O)cc(C)c12` returned an IC50 in assay [3] of 124.1 µM.

`COc1cc(/C=C/C(=O)OCCOc2ccc3ccc(=O)oc3c2)ccc1O` showed an IC50 in assay [3] of more than 300 µM. Consider `C[C@H]1O[C@H](O[C@H]2[C@H](O)[C@@H](O)[C@@H](O[C@H]3[C@H](O)[C@@H](O)C(O)O[C@@H]3CO)O[C@@H]2CO)[C@H](O)[C@@H](O)[C@@H]1N[C@H]1C=C(CO)[C@@H](O)[C@H](O)[C@H]1O` (stereo not given in full) [ACARBOSE], for which the outcome in assay [4] and in assay [6] was Active. This compound yielded an IC50 in assay [5] of 17.8 µM. Take `O=C(/C=C/c1ccc(F)cc1)OCCOc1ccc2ccc(=O)oc2c1`: the IC50 in assay [3] was more than 300 µM. Still for that read-out and setting: as for `O=C(/C=C/c1ccc(Cl)cc1)OCCOc1ccc2ccc(=O)oc2c1`, the figure is 283.2 µM. In assay [3], `O=C(OCCCCOc1ccc2ccc(=O)oc2c1)c1ccc(Cl)cc1Cl` had an IC50 of more than 300 µM. As to `CC(C)c1cc2cc3ccc(=O)oc3cc2o1`, the results for the IC50 in assay [1] and in assay [2] were 85.8 µM and 10.8 µM, respectively. For `C/C=C\C(=O)O[C@H]1[C@H](O)c2cc3ccc(=O)oc3cc2OC1(C)C`, in that order: 77.3 µM and 5.4 µM. Take `CCN(CC)c1ccc(/C=C/C(=O)OCCOc2ccc3ccc(=O)oc3c2)cc1`: in assay [3], the IC50 is more than 300 µM.

As to `O=C(/C=C/c1ccccc1[N+](=O)[O-])OCCOc1ccc2ccc(=O)oc2c1`, in assay [3], the IC50 was 299.7 µM.

Compound `COc1ccc(/C=C/C(=O)OCCOc2ccc3ccc(=O)oc3c2)cc1OC` had an IC50 in assay [3] of more than 300 µM. Still for that read-out and setting: for `O=C(/C=C/c1cccc(F)c1)OCCOc1ccc2ccc(=O)oc2c1` the value was more than 300 µM; for `O=C(/C=C/c1ccccc1Cl)OCCOc1ccc2ccc(=O)oc2c1`, 258.7 µM. Consider `O=C(/C=C/c1cccc(Cl)c1)OCCOc1ccc2ccc(=O)oc2c1`, for which the IC50 in assay [3] was more than 300 µM.

The term IC50 denotes the concentration needed to halve the response being measured. A low value points to greater potency.
